Where a name gives a salt, the structure may show the parent alone. Read-outs that look alike come from different tables or passages of the source.
Experiments:
[1] = molecular target: T1, PRMT5-MEP50 (Homo sapiens, UniProt O14744); assay: SPR binding assay (PRMT5.MTA and PRMT5·SAM surfaces); conditions: steady-state fit
T1 construct: biotin (in vivo biotinylated)
Protocol: In vivo biotinylated PRMT5-MEP50 was diluted to […] in 25 mM Bicine pH 7.6, 100 mM NaCl, 1 mM TCEP, and 0.05% Tween-20 and injected at 5 μl/min flow rate into flow cell 2 (FC2) of a Series S Sensor Chip SA (Cytiva) in a Biacore T200 or in a Biacore 8K plus (Cytiva). SPR screening was performed in MTA running buffer (25 mM Bicine pH 7.6, 100 mM NaCl, 1 mM TCEP, 20 µM MTA, 0.05% Tween-20 and 2% DMSO). The biotinylated PRMT5-MEP50 surface was equilibrated with MTA running buffer for 12 hours prior to the start. […] Subsequently, compound titration was repeated in SAM-running buffer (25 mM Bicine pH 7.6, 100 mM NaCl, 1 mM TCEP, 20 μM SAM, 0.05% Tween-20, and 2% DMSO). […] After double referencing, the steady-state response was extracted for each fragment concentration and was fit to the Langmuir isotherm equation to determine the equilibrium dissociation constant (KD).

[2] = molecular target: T2, PRMT5/MEP50 complex (Homo sapiens, UniProt O14744); assay: PRMT5:MEP50 FlashPlate Assay (histone H4 peptide methylation); format: biochemical; conditions: 40 nM H4 (1-15) peptide, 1 μM SAM
T2 construct: purchased Reaction Biology Corporation
Protocol: The PRMT5 inhibitory activity of compounds of the present invention was determined using a PRMT5: MEP50 FlashPlate Assay and a PRMT5: MEP50 HotSpot Assay (Reaction Biology Corporation).
The assay uses purified human, PRMT5 enzyme to convert S-adenosyl-L-[methyl-3H]methionine plus histone H4 L-arginine to S-adenosyl-L-homocysteine plus histone H4 [methyl-3H]-L-arginine. The assay was carried out using Streptavidin-coated FlashPlates (Perkin Elmer), which contained a scintillant embedded in the plastic of the plate. The histone H4 peptide substrate was conjugated with biotin, which binds to the streptavidin-coated well of the plate, placing the H4 peptide in close proximity to the side well and the scintillant. The transfer of the tritiated methyl group from S-adenosyl-L-[methyl-3H]methionine to the bound histone H4 peptide generated a radiolabeled histone H4, which was quantitated by measuring in a scintillation counter to determine the activity of PRMT5 enzyme in the presence and absence of compound. […] Briefly, compounds of the present invention were solubilized in 100% DMSO at a highest concentration of 10 mM. […] Control samples lacking compound, PRMT5/MEP50 complex or various reaction components also were prepared and processed in parallel with compound test samples. SAH was used as a positive control for assay validation. To measure PRMT5 inhibitory activity, 3 nM PRMT5/MEP50 complex (Reaction Biology Corporation) was preincubated with test compound in assay buffer containing 40 nM histone H4 peptide (amino acids 1-15)-Biotin conjugate for 20 min at room temperature. The enzymatic reaction was initiated by adding 1 μM tritiated S-adenosyl methionine (final concentration) and the reaction is allowed to proceed for 20 min. The reaction was stopped and the amount of bound, tritiated H4 peptide in each sample was determined using a scintillation counter.

[3] = PRMT5.MTA surface, MTA running buffer (20 µM MTA), read-out: KD MTA
[4] = PRMT5·SAM surface, SAM running buffer (20 μM SAM), read-out: KD SAM

T1 sequence (O14744 whole entry): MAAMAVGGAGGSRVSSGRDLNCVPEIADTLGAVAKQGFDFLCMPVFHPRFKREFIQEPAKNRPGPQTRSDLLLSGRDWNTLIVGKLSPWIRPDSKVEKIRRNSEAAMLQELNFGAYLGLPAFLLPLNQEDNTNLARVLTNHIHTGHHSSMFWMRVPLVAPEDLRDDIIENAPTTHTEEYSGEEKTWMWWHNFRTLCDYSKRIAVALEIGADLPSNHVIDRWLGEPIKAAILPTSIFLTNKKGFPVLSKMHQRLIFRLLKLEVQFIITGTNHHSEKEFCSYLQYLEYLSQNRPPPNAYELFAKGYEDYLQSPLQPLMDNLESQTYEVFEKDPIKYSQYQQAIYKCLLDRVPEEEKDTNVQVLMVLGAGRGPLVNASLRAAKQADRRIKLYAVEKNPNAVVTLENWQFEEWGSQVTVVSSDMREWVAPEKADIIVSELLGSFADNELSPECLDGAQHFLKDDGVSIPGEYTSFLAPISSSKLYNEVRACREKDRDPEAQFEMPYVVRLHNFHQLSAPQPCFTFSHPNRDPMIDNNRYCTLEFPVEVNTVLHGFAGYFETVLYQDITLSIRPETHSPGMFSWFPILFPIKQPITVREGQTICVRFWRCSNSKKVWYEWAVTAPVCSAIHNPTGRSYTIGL
T1 sequence (Q9BQA1 whole entry partner): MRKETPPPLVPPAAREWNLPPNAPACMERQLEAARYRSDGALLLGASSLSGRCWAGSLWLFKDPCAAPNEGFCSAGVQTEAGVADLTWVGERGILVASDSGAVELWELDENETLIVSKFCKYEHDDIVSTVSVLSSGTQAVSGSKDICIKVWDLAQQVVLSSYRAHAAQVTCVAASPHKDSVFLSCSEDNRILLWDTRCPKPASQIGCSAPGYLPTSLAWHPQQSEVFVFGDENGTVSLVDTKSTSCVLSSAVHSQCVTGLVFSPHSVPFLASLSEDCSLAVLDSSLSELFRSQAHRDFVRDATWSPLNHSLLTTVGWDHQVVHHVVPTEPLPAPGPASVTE
T2 sequence (O14744 2-637 limits assumed): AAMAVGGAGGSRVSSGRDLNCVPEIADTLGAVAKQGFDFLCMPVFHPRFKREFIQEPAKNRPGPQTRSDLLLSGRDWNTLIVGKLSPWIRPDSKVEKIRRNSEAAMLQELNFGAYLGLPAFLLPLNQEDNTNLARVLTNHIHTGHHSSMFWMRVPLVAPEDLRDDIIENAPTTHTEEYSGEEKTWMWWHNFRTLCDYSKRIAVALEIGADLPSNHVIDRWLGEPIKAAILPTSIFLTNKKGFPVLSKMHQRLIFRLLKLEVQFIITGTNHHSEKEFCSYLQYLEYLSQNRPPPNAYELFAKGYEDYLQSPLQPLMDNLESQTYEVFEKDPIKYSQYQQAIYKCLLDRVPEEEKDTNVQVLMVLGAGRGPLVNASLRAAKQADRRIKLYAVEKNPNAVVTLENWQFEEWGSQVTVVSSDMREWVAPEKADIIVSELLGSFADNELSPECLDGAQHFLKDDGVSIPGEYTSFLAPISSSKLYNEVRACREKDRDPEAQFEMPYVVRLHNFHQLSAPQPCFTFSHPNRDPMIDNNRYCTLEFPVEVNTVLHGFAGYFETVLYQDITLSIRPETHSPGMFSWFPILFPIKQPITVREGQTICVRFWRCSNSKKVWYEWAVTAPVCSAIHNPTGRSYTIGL
T2 sequence (Q9BQA1 2-342 partner limits assumed): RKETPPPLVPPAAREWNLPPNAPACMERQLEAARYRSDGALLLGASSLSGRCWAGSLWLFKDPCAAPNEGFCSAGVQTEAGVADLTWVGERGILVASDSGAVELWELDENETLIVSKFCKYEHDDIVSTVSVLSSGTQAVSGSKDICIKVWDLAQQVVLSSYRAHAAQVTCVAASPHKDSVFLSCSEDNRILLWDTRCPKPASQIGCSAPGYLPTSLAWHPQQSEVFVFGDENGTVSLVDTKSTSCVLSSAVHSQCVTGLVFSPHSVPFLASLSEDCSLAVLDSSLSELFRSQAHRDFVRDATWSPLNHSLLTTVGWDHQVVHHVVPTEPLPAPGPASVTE

| Compound | Kd [1, 3] [µM] | Kd [1, 4] [µM] | IC50 ([2]; IC50 + 2 μM MTA, plus 2 μM MTA) [µM] | IC50 ([2]; absence of MTA, read-out: IC50) [µM] |
| --- | --- | --- | --- | --- |
| Cn1ccc(-c2ccc3c(c2)nc(N)n3C)n1 [Example 1-2, 1-methyl-5-(1-methyl-1H-pyrazol-3-yl)-1H-benzo[d]imidazol-2-amine] | 49 | 65.8 | > 300 |  |
| Cc1ncc(CNc2cccc3c2nc(N)n3C)n1-c1ccccc1 [Example 1-12, 1-methyl-N4-((2-methyl-1-phenyl-1H-imidazol-5-yl)methyl)-1H-benzo[d]imidazole-2,4-diamine] | 2.45 | 19.7 | > 300 |  |
| Cn1c(N)nc2c(Nc3cnc4c(c3)CCCC4)cccc21 [Example 1-19, 1-methyl-N4-(5,6,7,8-tetrahydroquinolin-3-yl)-1H-benzo[d]imidazole-2,4-diamine] | 74.2 | 203 | > 300 |  |
| CC(C)c1nc(Nc2cccc3c2nc(N)n3C)ns1 [Example 1-42, N4-(5-isopropyl-1,2,4-thiadiazol-3-yl)-1-methyl-1H-benzo[d]imidazole-2,4-diamine] | 20.8 |  | > 300 |  |
| COc1cccc(CN(C)c2ccc3c(c2)nc(N)n3C)c1 [Example 1-48, N5-(3-methoxybenzyl)-N5,1-dimethyl-1H-benzo[d]imidazole-2,5-diamine] | 39.1 | 108 |  |  |
| Cn1cc(-c2ccc3c(c2)nc(N)n3C)cn1 [Example 1-53, 1-methyl-5-(1-methyl-1H-pyrazol-4-yl)-1H-benzo[d]imidazol-2-amine] | 44.6 | 187 | > 300 |  |
| Cn1nccc1-c1ccc2c(c1)nc(N)n2C [Example 1-56, 1-methyl-5-(1-methyl-1H-pyrazol-5-yl)-1H-benzo[d]imidazol-2-amine] | 24.5 | 51.9 | > 300 |  |
| CN(Cc1nnc2n1CCOC2)c1ccc2c(c1)nc(N)n2C [Example 1-83, N5-((5,6-dihydro-8H-[1,2,4]triazolo[3,4-c][1,4]oxazin-3-yl)methyl)-N5,1-dimethyl-1H-benzo[d]imidazole-2,5-diamine] | 0.089 | 41.8 | > 300 |  |
| Cn1ncc(-c2cccc3c2nc(N)n3C)c1-c1ccccc1C#N [Example 1-87, 2-(4-(2-amino-1-methyl-1H-benzo[d]imidazol-4-yl)-1-methyl-1H-pyrazol-5-yl)benzonitrile hydrochloride] | 0.512 | 1.67 | 17.9 | > 300 |
| Cn1ncc(-c2ccc(Cl)c3c2nc(N)n3C)c1-c1c(F)cc2ccccc2c1C#N [Example 2-2, 2-[4-(2-amino-7-chloro-1-methyl-benzimidazol-4-yl)-2-methyl-pyrazol-3-yl]-3-fluoro-naphthalene-1-carbonitrile hydrochloride] | 0.151 | 0.679 | 0.527 | 10.7 |
| Cn1c(N)nc2c(Nc3cnc4c(c3)CCCC4)ccc(Cl)c21 [Example 2-4, 7-chloro-1-methyl-N^4-(5,6,7,8-tetrahydroquinolin-3-yl)-1H-benzo[d]imidazole-2,4-diamine hydrochloride] | 26.8 | 40.9 | > 300 | > 300 |
| Cn1c(N)nc2c(C3CCOC3)ccc(Cl)c21 (centres unmarked) [Example 2-8, 7-chloro-1-methyl-4-tetrahydrofuran-3-yl-benzimidazol-2-amine hydrochloride] | 24.7 |  | > 300 | > 300 |
| CN(c1cccnc1)c1cc(Cl)c2c(c1)nc(N)n2C [Example 2-9, 7-chloro-N5-1-dimethyl-N5-(3-pyridyl)benzimidazole-2,5-diamine hydrochloride] | 65.7 | 175 | > 300 | > 300 |
| Cn1c(N)nc2cc(Cc3cccnc3)cc(Cl)c21 [Example 2-10, 7-chloro-1-methyl-5-(3-pyridylmethyl)benzimidazol-2-amine hydrochloride] | 1.52 | 48.4 | 97.6 | > 300 |
| Cn1c(N)nc2cc(Cc3cccnc3)cc(C#N)c21 [Example 3-2, 2-amino-3-methyl-6-(3-pyridylmethyl)benzimidazole-4-carbonitrile] | 0.513 | 35.6 | 110 | > 300 |
| Cn1c(N)nc2cc(Cc3ccccn3)cc(C#N)c21 [Example 3-3, 2-amino-3-methyl-6-(2-pyridylmethyl)benzimidazole-4-carbonitrile] | 0.187 | 2.75 | 17.6 | 134 |
| Cn1nc(-c2cc(C#N)c3c(c2)nc(N)n3C)c2cnccc21 [Example 3-5, 2-amino-3-methyl-6-(1-methylpyrazolo[4,3-c]pyridin-3-yl)benzimidazole-4-carbonitrile] | 1.14 | 2.77 | > 300 | > 300 |
| Cn1cc(Cc2cc(C#N)c3c(c2)nc(N)n3C)cn1 [Example 3-6, 2-amino-3-methyl-6-[ (1-methylpyrazol-4-yl)methyl]benzimidazole-4-carbonitrile] | 0.179 | 1.94 | 44.4 | > 300 |
| Cn1nccc1Cc1cc(C#N)c2c(c1)nc(N)n2C [Example 3-8, 2-amino-3-methyl-6-[ (2-methylpyrazol-3-yl)methyl]benzimidazole-4-carbonitrile] | 4.43 | 10.2 | > 300 | > 300 |
| Cn1c(N)nc2cc(Cc3ccc4ccncc4c3)cc(C#N)c21 [Example 3-9, 2-amino-6-(7-isoquinolylmethyl)-3-methyl-benzimidazole-4-carbonitrile] | 0.879 | 3.67 | 16.9 | 219 |
| COc1c(Cc2cccnc2)cc(C#N)c2c1nc(N)n2C [Example 3-22, 2-amino-7-methoxy-3-methyl-6-(3-pyridylmethyl)benzimidazole-4-carbonitrile hydrochloride] | 16.3 | 79.6 |  |  |
| CC(=O)N(Cc1cc(C#N)c2c(c1)nc(N)n2C)c1ccc2ccccc2c1C#N [Example 3-25, N-[(2-amino-7-cyano-1-methyl-benzimidazol-5-yl)methyl]-N-(1-cyano-2-naphthyl) acetamide] |  |  | 0.006 | 2.48 |
| Cn1c(N)nc2c(Nc3cnc4c(c3)CCCC4)ccc(C#N)c21 [Example 3-30, 2-amino-1-methyl-4-((5,6,7,8-tetrahydroquinolin-3-yl)amino)-1H-benzo[d]imidazole-7-carbonitrile] | 16.9 | 32.5 |  |  |
| Cn1c(N)nc2cc(Cc3ccccn3)cc(C(F)F)c21 [Example 4-2, 7-(difluoromethyl)-1-methyl-5-(2-pyridylmethyl)benzimidazol-2-amine] |  |  | 122 | > 300 |
| CCn1c(N)nc2ncccc21 [Example 5-1, 1-ethyl-1H-imidazo[4,5-b]pyridin-2-amine hydrochloride] |  |  | > 300 | > 300 |
| Cn1c(N)nc2cc(Oc3cccnc3)cnc21 [Example 5-3, 3-methyl-6-(3-pyridyloxy) imidazo[4,5-b]pyridin-2-amine] |  |  | > 300 | > 300 |
| CCc1cc(-c2cnn(C)c2-c2ccccc2C#N)c2nc(N)n(C)c2c1 [Example 6-3, 2-[4-(2-amino-6-ethyl-1-methyl-benzimidazol-4-yl)-2-methyl-pyrazol-3-yl]benzonitrile hydrochloride] |  |  | 17.8 | 198 |
